Laboratory results taken from patent US6040149A, “Assay for identifying agents which act on the ceramide-activated protein kinase, kinase suppressor of ras, and methods of using said agents” (priority 1997, dated 2000).
Where two headings read alike, the source gives them in different places.

What was measured:
[1] = system: ceramide-activated protein kinase; conditions: generation of other lipid second messengers, refs [111, 112]; cited from earlier work
KSR [2] = target: T1, KSR (Mus musculus, UniProt Q61097); experiment: KSR autophosphorylation in vitro; type: biochemical, mouse (KSR immunoprecipitated from COS-7 cells); parameters: Raf-1 peptides as substrate
T1 sequence (Q61097 1-873): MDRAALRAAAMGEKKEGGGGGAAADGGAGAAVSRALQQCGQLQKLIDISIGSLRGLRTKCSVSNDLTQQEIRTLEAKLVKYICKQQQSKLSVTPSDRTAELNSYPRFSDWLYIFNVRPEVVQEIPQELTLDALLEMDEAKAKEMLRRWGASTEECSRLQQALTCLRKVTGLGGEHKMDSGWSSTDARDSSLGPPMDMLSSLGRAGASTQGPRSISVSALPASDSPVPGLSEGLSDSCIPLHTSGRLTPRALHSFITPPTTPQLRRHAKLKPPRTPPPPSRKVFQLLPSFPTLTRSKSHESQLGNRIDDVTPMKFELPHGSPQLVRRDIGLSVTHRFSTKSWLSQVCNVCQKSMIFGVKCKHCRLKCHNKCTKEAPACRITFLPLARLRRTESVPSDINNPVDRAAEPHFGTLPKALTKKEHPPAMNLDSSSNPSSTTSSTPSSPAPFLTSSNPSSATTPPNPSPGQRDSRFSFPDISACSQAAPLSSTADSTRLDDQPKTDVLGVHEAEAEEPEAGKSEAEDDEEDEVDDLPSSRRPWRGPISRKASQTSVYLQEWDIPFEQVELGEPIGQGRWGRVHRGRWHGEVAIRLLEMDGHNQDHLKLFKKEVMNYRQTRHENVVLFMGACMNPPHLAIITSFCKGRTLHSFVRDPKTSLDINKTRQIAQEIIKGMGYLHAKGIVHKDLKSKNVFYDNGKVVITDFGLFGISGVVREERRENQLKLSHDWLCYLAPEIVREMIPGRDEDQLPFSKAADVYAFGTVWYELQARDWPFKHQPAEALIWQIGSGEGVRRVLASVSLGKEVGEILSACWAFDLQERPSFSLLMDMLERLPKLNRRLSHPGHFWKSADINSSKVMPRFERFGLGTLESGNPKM
Experimental: Phosphorylated KSR was resolved and detected as in FIG. 2A.
KSR was immunoprecipitated as above from 0.8 mg NP-40 lysate protein with 40 μl agarose-conjugated anti-Flag antibody at 4° C. for 4 hrs or overnight. […] The reaction was stopped by addition of Laemmli sample buffer. Samples were resolved by 7.5% sodium dodecyl sulfate-polyacrylamide gel electrophoresis (SDS-PAGE) and autoradiographed.

KSR [3] = target: T1, KSR; experiment: KSR activity toward Raf-1 peptides in vitro; type: biochemical, mouse (KSR immunoprecipitated from COS-7 cells); parameters: Raf-1 peptides as substrate; conditions: 30 nM
Experimental: The wild type peptide contains eight potential phosphorylation sites (shown in bold). Substitution of alanines and glycines for serines and threonines generated one peptide (TTLP-peptide) containing only two potential phosphorylation sites (Thr^268,269) and another peptide (AALP-peptide) with no potential phosphorylation sites.
FIG. 28A--Flag-tagged KSR was immunoprecipitated from 0.2 mg COS-7 lysate, and assayed with TTLP- or AALP-peptides in the presence of 30 nM ceramide (Avanti) or diluent (DMSO). Background counts per minute (cpm) derived from samples incubated with the AALP-peptide which contains no phosphorylation sites were subtracted from all points. Background cpm always represented less than 25% of the untreated total.
FIG. 28B--Flag-tagged KSR immunoprecipitated from 0.2 mg COS-7 lysate was assayed with TTLP- or AALP-peptides in the presence of ceramide or diluent for 45 min as described in FIG. 7A.
FIG. 28C--Flag-tagged KSR was immunoprecipitated from 0.15 mg COS-7 lysate and assayed with TTLP- or AALP-peptides for 20 min in the presence of 30 nM of the indicated lipid second messengers as described in FIG. 28A (AA: arachidonic acid; LPA: lyso phosphatidic acid; PMA: phorbol 12-myristate 13-acetate; DAG: 1,2-diacylglycerol).
KSR-bound beads were incubated with reaction buffer B plus 10 mM MnCl2, 5 μM ATP and [γ-^32 P]ATP at 22° C. for the period of time indicated in the presence of 0.3 mM synthetic Raf-peptide or substrate peptides specific for other Ser/Thr protein kinases. […] (SEQ ID NO.3). Substitution of glycines and alanines for serines and threonines generated one peptide (termed TTLP-peptide) containing only two potential phosphorylation sites at Thr^268,269 (in bold), […] (SEQ ID NO. 24), and another peptide (termed AALP-peptide; SEQ ID No.6) with no potential phosphorylation sites, […] (SEQ ID No.25). The amino acid sequences of substrate peptides specific for other protein kinases (Joseph et al., 1993) are: […] (SEQ ID NO.26) (PKA); […] (SEQ ID NO.27) (S6 kinase); […] (SEQ ID NO.28)(CK II); […] (SEQ ID NO.29) (CaM kinase II); and […] (SEQ ID NO.30) (PKC). […] Substrate peptides for PKA and PKC were from Sigma (St. Louis, Mo.). The reaction was stopped by addition of a stop solution containing 0.5 M ATP in 90% formic acid. The beads were removed by centrifugation at 5000×g for 2 min and the supernatant was loaded on P81 Whatman filter paper. The filter was air dried and washed in 4 mM Na2 H2 P2 O7, 1 mM acetic acid for one hour. The filter was baked at 90° C. for 10 min and quantified by Cerenkov counting using a Beckman LS 5000TD scintillation counter. In some experiments, samples were separated by C18 reverse-phase chromatography on HPLC (Mathias et al., 1991) to verify the results of the filter assay. Virtually identical results were obtained with both methods.

[4] = system: ceramide-activated protein kinase; experiment: EGFR peptide phosphorylation in a cell-free system (HL-60 nuclei-free supernate); type: biochemical, human (HL-60 cells); conditions: GTP and GTP-γ-S 0.25 to 200 μM; sphingomyelinase 1×10^-3 U ml^-1, 5 minutes; phospholipases 40- to 400-fold higher
Experimental: Effect of TNF-α on ceramide-activated protein kinase activity. HL-60 cells were incubated in serum-free medium and homogenized (as in FIG. 9). […] ATP (750 μM, 4000 dpm pmol^-1), and 75 μl of reaction buffer. […] Phosphorylated peptide was first run on a C18 Sep-Pak cartridge, then resolved by C18 reverse-phase HPLC (Waters, Milford, Mass.), with a linear gradient of acetonitrile. The peptide eluted at 30% acetonitrile, as determined by monitoring Cerenkov radiation in 1-ml fractions. Background activity was subtracted from each point. (A) Kinetics of TNF-α (30 nM)-stimulated EGFR peptide phosphorylation. Values (mean) represent data from four experiments. (B) Concentration dependence of EGFR peptide phosphorylation at 5 minutes of stimulation with TNF-α (0.01 to 30 nM). Values (mean) represent data derived from duplicate points in two experiments. The SEM of the values in (A) was 18% and the mean range of values in (B) was 3%.
Effect of phospholipases on ceramide-activated protein kinase activity. Nuclei-free supernates, prepared as in FIG. 9, were first incubated with TNF-α (3 nM) or added directly to reaction mixtures that contained various phospholipases; sphingomyelinase (SMase) (1×10^-3 U ml^-1, S. aureus), phospholipase A2 (PlA2) (3.8×10^-2 and 3.8×10^-1 U ml^-1, Vipera ruselli), phospholipase C (PLC) (3.8×10^-2 U ml^-1, Bacillus cereus) and phospholipase D (PLD) (3.8×10^-2 U ml^-1, Streptomyces chromocuscus). Peptide phosphorylation was measured as in FIG. 10. Control value represents peptide phosphorylation in the absence of phospholipases or TNF-α. Values (mean±SEM) represent data derived from duplicate samples in three experiments. *P<0.001 compared to control.
The effect of TNF-α on ceramide-activated protein kinase activity was assessed. […] For studies assessing the effect of TNFα in broken cell preparations, nuclei-free supernates were incubated under conditions sufficient for stimulation of neutral sphingomyelinase in a reaction mixture that also contained EGFR peptide and γ-^32 P-labeled ATP. Phosphorylated peptide was resolved by high-performance liquid chromatograph (HPLC) and quantified by Cerenkov counting. Kinase activity was calculated from the specific activity of [γ-^32 P] ATP and incorporation of ^32 P into EGFR peptide. Background activity was subtracted from each point. […] TNF-α stimulation of kinase activity was evident by 1 minute and demonstrable for at least 10 minutes. If the initial incubation with TNF-α at 4° C. was omitted and TNF was added directly to the reaction mixture at 22° C., the reaction was delayed. […] TNF-α enhanced kinase activity in a concentration-dependent manner at 5 minutes (FIG. 10B). […] This is similar to the ED50 of 200 pM for stimulation of ceramide-activated protein kinase by TNF-α in intact cells. TNF-α enhanced kinase activity in a total of 20 separate studies.
Control activity reflects several TNF-α-independent protein kinases that are known to phosphorylate EGFR peptide on Thr^669.

Raf-1 = experiment: Kinase activity of immunoprecipitated Raf-1 toward MEK1 after HL-60 cell stimulation; type: cell-based, human (HL-60 cells)
Experimental: Recovery of MEK1 was monitored by western blot (Bottom Panel). Identical results were obtained with cells stimulated for 5 min with TNF.
Recovery of MEK1 was monitored by western blot (Bottom Panel).
These studies indicate that Raf-1 is a component of the sphingomyelin pathway mediating TNF action.
MEK1 autophosphorylation was for 45 min. An autoradiogram of MEK1 phosphorylation (top panel) and recovery of MEK1 protein by western blot (bottom panel) are shown. For western blot, proteins separated by SDS-PAGE were electrotransferred to an Immobilon PVDF membrane at 12 volts overnight at 4° C. Membranes were then blocked with 2% BSA in TBS [20 mM Tris, pH 7.6, 137 mM NaCl] for 1 hr and washed with TBST (TBS containing 0.2% Tween-20).

Q: For 1,2-diacylglycerol, which “effect on kinase activity” value [1] is on record?
A: Its value is “failed to enhance kinase activity”.

Q: What about the “effect on activation of KSR” value (KSR [2]) of the same compound?
A: Its value is “no effect”.

Q: What about the “effect on activation of KSR towards Raf-peptide” value (KSR [3]) of the same compound?
A: Its value is “no effect”.

Q: Which “effect on kinase activity” value [4] does the source give for `Nc1nc2c(ncn2[C@@H]2O[C@H](COP(=O)(O)OP(=O)(O)OP(=O)(O)O)[C@@H](O)[C@H]2O)c(=O)[nH]1` [GTP, Guanosine triphosphate] here?
A: Its value is “did not affect kinase activity”.

Q: With `Nc1nc2c(ncn2[C@@H]2O[C@H](COP(=O)(O)OP(=O)(O)OP(O)(O)=S)[C@@H](O)[C@H]2O)c(=O)[nH]1` [GTP-γ-S, guanosine-5'-O-(3-thiotriphosphate)] as the compound, how does the “effect on kinase activity” value [4] read?
A: Its value is “did not affect kinase activity”.

Q: With `CCCCC/C=C\C/C=C\C/C=C\C/C=C\CCCC(=O)O` [arachidonic acid] as the compound, how does the “effect on kinase activity” value [1] read?
A: Its value is “failed to enhance kinase activity”.

Q: What about the “effect on activation of KSR” value (KSR [2]) of the same compound?
A: The value was “no effect”.

Q: What about the “effect on activation of KSR towards Raf-peptide” value (KSR [3]) of the same compound?
A: The value was “no effect”.

Q: For “Granulocyte-macrophage colony stimulating factor: induces monocytic differentiation of HL-60 cells”, which “increase of Raf-1 activity” value (Raf-1; GM-CSF 500 pM) is on record?
A: Its value is 2.5 fold.

Q: For PDGF, which “increase of Raf-1 activation” value (Raf-1; PDGF 5 nM, after TPA induction of PDGF receptors) is on record?
A: Its value is 4 fold.

Q: For insulin: insulin, which “increase of Raf-1 activity” value (Raf-1; insulin 100 nM) is on record?
A: The value was 4 fold.

Q: For lyso-phosphatidic acid, which “effect on activation of KSR” value (KSR [2]) is on record?
A: Its value is “no effect”.

Q: What about the “effect on activation of KSR towards Raf-peptide” value (KSR [3]) of the same compound?
A: The value was “no effect”.

Q: For phosphatidic acid, which “effect on kinase activity” value [1] is on record?
A: The value was “failed to enhance kinase activity”.

Q: With phosphatidylcholine as the compound, how does the “effect on activation of KSR” value (KSR [2]) read?
A: The value was “no effect”.

Q: Which “effect on activation of KSR” value (KSR [2]) does the source give for phosphatidylserine here?
A: The value was “no effect”.
